Measured values from US11084800B2 (Achillion Pharmaceuticals, Inc., priority 2017, dated 2021).

What follows are molecules tested against Human Factor D (Homo sapiens (Human), UniProt P00746) (assay: Human Factor D Assay). Conditions: Factor D inhibition, assay of Example 10; read-out: IC5 (Stars).
Chain of Human Factor D (P00746 26-253): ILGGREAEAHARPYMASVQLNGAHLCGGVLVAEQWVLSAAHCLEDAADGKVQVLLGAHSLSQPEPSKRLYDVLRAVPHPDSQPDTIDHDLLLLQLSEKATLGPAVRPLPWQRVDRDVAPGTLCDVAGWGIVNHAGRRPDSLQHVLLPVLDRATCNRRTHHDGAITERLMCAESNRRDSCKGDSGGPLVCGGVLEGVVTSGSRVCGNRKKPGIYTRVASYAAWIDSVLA
Assay type: biochemical
How it was run: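 Thioester substrate Z-L-Lys-SBz (100 μM) with Ellman's reagent DTNB (100 μM) reports activity of 80 nM human serum-derived enzyme, kinetically at 405 nm over 30 min. Compound preincubated 5 min, room temperature, pH 7.5 Tris/1 M NaCl; IC50 by nonlinear fit of rates.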
`CC(=O)c1nn(CC(=O)N2[C@H](C(=O)NCCCN(C)C)C[C@@]3(C)C[C@@H]23)c2ccc(-c3cnc(C)nc3)cc12` [Compound 520, (1R,3S,5R)-2-(2-(3-acetyl-5-(2-methylpyrimidin-5-yl)-1H-indazol-1-yl)acetyl)-N-(3-(dimethylamino)propyl)-5-methyl-2-azabicyclo[3.1.0]hexane-3-carboxamide] gave an IC50 of 1000 to 10000 nM.
In the case of `CC(=O)c1nn(CC(=O)N2[C@H](C(=O)Nc3nc(Br)ccc3C)C[C@@]3(C)C[C@@H]23)c2c(CO)cc(-c3cnc(C)nc3)cc12` [Compound 526, (1R,3S,5R)-2-(2-(3-Acetyl-7-(hydroxymethyl)-5-(2-methylpyrimidin-5-yl)-1H-indazol-1-yl)acetyl)-N-(6-bromo-3-methylpyridin-2-yl)-5-methyl-2-azabicyclo[3.1.0]hexane-3-carboxamide], the IC50 is reported as < 1000 nM.
With `CC(=O)OCc1cc(-c2cnc(C)nc2)cc2c(C(C)=O)nn(CC(=O)N3[C@H](C(=O)Nc4nc(Br)ccc4C)C[C@@]4(C)C[C@@H]34)c12` [Compound 529, (3-Acetyl-1-(2-((1R,3S,5R)-3-((6-bromo-3-methylpyridin-2-yl)carbamoyl-5-methyl-2-azabicyclo[3.1.0]hexan-2-yl)-2-oxoethyl)-5-(2-methylpyrimidin-5-yl)-1H-indazol-7-yl)methyl acetate] the IC50 was < 1000 nM.
For `CCc1cc(Br)nc(NC(=O)[C@@H]2C[C@@]3(C)C[C@H]3N2C(=O)Cn2nc(C(C)=O)c3cc(-c4cnc(C)nc4)ccc32)c1` [Compound 532, (1R,3S,5R)-2-(2-(3-acetyl-5-(2-methylpyrimidin-5-yl)-1H-indazol-1-yl)acetyl)-N-(6-bromo-4-ethylpyridin-2-yl)-5-methyl-2-azabicyclo[3.1.0]hexane-3-carboxamide], the IC50 was < 1000 nM.
In the case of `CC(=O)c1nn(CC(=O)N2[C@H](C(=O)NC(CCc3ccccc3)(CCc3ccccc3)C(=O)O)C[C@@]3(C)C[C@@H]23)c2c(C)cc(-c3cnc(C)nc3)cc12` [Compound 533, 2-((1R,3S,5R)-2-(2-(3-acetyl-7-methyl-5-(2-methylpyrimidin-5-yl)-1H-indazol-1-yl)acetyl)-5-methyl-2-azabicyclo[3.1.0]hexane-3-carboxamido)-2-phenethyl-4-phenylbutanoic acid], the IC50 is reported as > 10000 nM.
In the case of `CC(=O)c1nn(CC(=O)N2[C@H](C(=O)Nc3cc(CC(N)=O)cc(Br)n3)C[C@@]3(C)C[C@@H]23)c2ccc(-c3cnc(C)nc3)cc12` [Compound 534, (1R,3S,5R)-2-(2-(3-acetyl-5-(2-methylpyrimidin-5-yl)-1H-indazol-1-yl)acetyl)-N-(4-(2-amino-2-oxoethyl)-6-bromopyridin-2-yl)-5-methyl-2-azabicyclo[3.1.0]hexane-3-carboxamide], the IC50 is reported as < 1000 nM.
In the case of `CC(=O)c1nn(CC(=O)N2[C@H](C(=O)Nc3cc(C(C)C)cc(Br)n3)C[C@@]3(C)C[C@@H]23)c2ccc(-c3cnc(C)nc3)cc12` [Compound 541, (1R,3S,5R)-2-(2-(3-acetyl-5-(2-methylpyrimidin-5-yl)-1H-indazol-1-yl)acetyl)-N-(6-bromo-4-isopropylpyridin-2-yl)-5-methyl-2-azabicyclo[3.1.0]hexane-3-carboxamide], the IC50 is reported as < 1000 nM.
With `CC(=O)c1nn(CC(=O)N2[C@H](C(=O)Nc3cc(CC(C)C)cc(Br)n3)C[C@@]3(C)C[C@@H]23)c2ccc(-c3cnc(C)nc3)cc12` [Compound 542, (1R,3S,5R)-2-(2-(3-acetyl-5-(2-methylpyrimidin-5-yl)-1H-indazol-1-yl)acetyl)-N-(6-bromo-4-isobutylpyridin-2-yl)-5-methyl-2-azabicyclo[3.1.0]hexane-3-carboxamide] the IC50 was < 1000 nM.
With `CC(=O)c1nn(CC(=O)N2[C@H](C(=O)Nc3cc(C#N)cc(Br)n3)C[C@@]3(C)C[C@@H]23)c2ccc(-c3cnc(C)nc3)cc12` [Compound 543, (1R,3S,5R)-2-(2-(3-acetyl-5-(2-methylpyrimidin-5-yl)-1H-indazol-1-yl)acetyl)-N-(6-bromo-4-cyanopyridin-2-yl)-5-methyl-2-azabicyclo[3.1.0]hexane-3-carboxamide] the IC50 was < 1000 nM.
For `CC(=O)c1nn(CC(=O)N2[C@H](C(=O)Nc3cc(-c4nnn[nH]4)cc(Br)n3)C[C@@]3(C)C[C@@H]23)c2ccc(-c3cnc(C)nc3)cc12` [Compound 544, (1R,3S,5R)-2-(2-(3-acetyl-5-(2-methylpyrimidin-5-yl)-1H-indazol-1-yl)acetyl)-N-(6-bromo-4-(1H-tetrazol-5-yl)pyridin-2-yl)-5-methyl-2-azabicyclo[3.1.0]hexane-3-carboxamide], the IC50 was < 1000 nM.
In the case of `CC(=O)c1nn(CC(=O)N2[C@H](C(=O)Nc3cc(CCC(C)C)cc(Br)n3)C[C@@]3(C)C[C@@H]23)c2ccc(-c3cnc(C)nc3)cc12` [Compound 545, (1R,3S,5R)-2-(2-(3-acetyl-5-(2-methylpyrimidin-5-yl)-1H-indazol-1-yl)acetyl)-N-(6-bromo-4-isopentylpyridin-2-yl)-5-methyl-2-azabicyclo[3.1.0]hexane-3-carboxamide], the IC50 is reported as < 1000 nM.
`COCc1cc(Br)nc(NC(=O)[C@@H]2C[C@@]3(C)C[C@H]3N2C(=O)Cn2nc(C(C)=O)c3cc(-c4cnc(C)nc4)ccc32)c1` [Compound 546, (1R,3S,5R)-2-(2-(3-acetyl-5-(2-methylpyrimidin-5-yl)-1H-indazol-1-yl)acetyl)-N-(6-bromo-4-(methoxymethyl)pyridin-2-yl)-5-methyl-2-azabicyclo[3.1.0]hexane-3-carboxamide] was tested, and the IC50 was < 1000 nM.
With `CC(=O)c1nn(CC(=O)N2[C@H](C(=O)Nc3cc(-c4ccccc4)cc(Br)n3)C[C@@]3(C)C[C@@H]23)c2ccc(-c3cnc(C)nc3)cc12` [Compound 547, (1R,3S,5R)-2-(2-(3-acetyl-5-(2-methylpyrimidin-5-yl)-1H-indazol-1-yl)acetyl)-N-(6-bromo-4-phenylpyridin-2-yl)-5-methyl-2-azabicyclo[3.1.0]hexane-3-carboxamide] the IC50 was < 1000 nM.
For `CC(=O)c1nn(CC(=O)N2[C@H](C(=O)Nc3cc(CCc4ccccc4)cc(Br)n3)C[C@@]3(C)C[C@@H]23)c2ccc(-c3cnc(C)nc3)cc12` [Compound 548], the IC50 was < 1000 nM.
`CCCCc1cc(Br)nc(NC(=O)[C@@H]2C[C@@]3(C)C[C@H]3N2C(=O)Cn2nc(C(C)=O)c3cc(-c4cnc(C)nc4)ccc32)c1` [Compound 549, (1R,3S,5R)-2-(2-(3-acetyl-5-(2-methylpyrimidin-5-yl)-1H-indazol-1-yl)acetyl)-N-(6-bromo-4-butylpyridin-2-yl)-5-methyl-2-azabicyclo[3.1.0]hexane-3-carboxamide] was tested, and the IC50 was < 1000 nM.

Same assay, conditions: Table 8; Factor D 80 nM, substrate Z-L-Lys-SBz; read-out: IC50
With `CCCCCCCNC(=O)[C@@H]1C[C@@]2(C)C[C@H]2N1C(=O)Cn1nc(C(C)=O)c2cc(-c3cnc(C)nc3)cc(C)c21` [Compound 527, (1R,3S,5R)-2-(2-(3-acetyl-7-methyl-5-(2-methylpyrimidin-5-yl)-1H-indazol-1-yl)acetyl)-N-heptyl-5-methyl-2-azabicyclo[3.1.0]hexane-3-carboxamide] the IC50 was < 1000 nM.
`CCCCCCCCNC(=O)[C@@H]1C[C@@]2(C)C[C@H]2N1C(=O)Cn1nc(C(C)=O)c2cc(-c3cnc(C)nc3)cc(C)c21` [Compound 528, (1R,3S,5R)-2-(2-(3-acetyl-7-methyl-5-(2-methylpyrimidin-5-yl)-1H-indazol-1-yl)acetyl)-5-methyl-N-octyl-2-azabicyclo[3.1.0]hexane-3-carboxamide] showed an IC50 of 1000 to 10000 nM.
Molecule `CCCCCCCCCNC(=O)[C@@H]1C[C@@]2(C)C[C@H]2N1C(=O)Cn1nc(C(C)=O)c2cc(-c3cnc(C)nc3)cc(C)c21` [Compound 530, (1R,3S,5R)-2-(2-(3-acetyl-7-methyl-5-(2-methylpyrimidin-5-yl)-1H-indazol-1-yl)acetyl)-5-methyl-N-nonyl-2-azabicyclo[3.1.0]hexane-3-carboxamide] has an IC50 of 1000 to 10000 nM.
For `CCCCCCCCCCNC(=O)[C@@H]1C[C@@]2(C)C[C@H]2N1C(=O)Cn1nc(C(C)=O)c2cc(-c3cnc(C)nc3)cc(C)c21` [Compound 531, (1R,3S,5R)-2-(2-(3-acetyl-7-methyl-5-(2-methylpyrimidin-5-yl)-1H-indazol-1-yl)acetyl)-N-decyl-5-methyl-2-azabicyclo[3.1.0]hexane-3-carboxamide], the IC50 was > 10000 nM.
For `CCCCCCCCCCCCCCCC(=O)NCCCC[C@H](NC(=O)[C@H](CCC(=O)O)NC(=O)[C@H](Cc1ccc(O)cc1)NC(=O)[C@H](CCC(=O)O)NC(C)=O)C(=O)N[C@@H](CCC(=O)O)C(=O)N[C@@H](Cc1ccc(O)cc1)C(=O)N[C@@H](CCC(=O)O)C(=O)NCCOCCOCCOCCOCCOCCOCCOCCOCCOCCOCCOCCOCCOCCOCCOCCOCCOCCOCCOCCOCCOCCOCCOCCOCCC(=O)NC[C@@]12C[C@@H](C(=O)Nc3nc(Br)ccc3C)N(C(=O)Cn3nc(C(C)=O)c4cc(-c5cnc(C)nc5)cc(C)c43)[C@@H]1C2` [Compound 535], the IC50 was 1000 to 10000 nM.
For `CC(=O)c1nn(CC(=O)N2[C@H](C(=O)NCCCCc3ccccc3)C[C@@]3(C)C[C@@H]23)c2c(C)cc(-c3cnc(C)nc3)cc12` [Compound 538, (1R,3S,5R)-2-(2-(3-acetyl-7-methyl-5-(2-methylpyrimidin-5-yl)-1H-indazol-1-yl)acetyl)-5-methyl-N-(4-phenylbutyl)-2-azabicyclo[3.1.0]hexane-3-carboxamide], the IC50 was < 1000 nM.
For `CC(=O)c1nn(CC(=O)N2[C@H](C(=O)NCCCCCc3ccccc3)C[C@@]3(C)C[C@@H]23)c2c(C)cc(-c3cnc(C)nc3)cc12` [Compound 539, (1R,3S,5R)-2-(2-(3-acetyl-7-methyl-5-(2-methylpyrimidin-5-yl)-1H-indazol-1-yl)acetyl)-5-methyl-N-(5-phenylpentyl)-2-azabicyclo[3.1.0]hexane-3-carboxamide], the IC50 was < 1000 nM.
In the case of `CC(=O)c1nn(CC(=O)N2[C@H](C(=O)NCCCCCCc3ccccc3)C[C@@]3(C)C[C@@H]23)c2c(C)cc(-c3cnc(C)nc3)cc12` [Compound 540, (1R,3S,5R)-2-(2-(3-acetyl-7-methyl-5-(2-methylpyrimidin-5-yl)-1H-indazol-1-yl)acetyl)-5-methyl-N-(6-phenylhexyl)-2-azabicyclo[3.1.0]hexane-3-carboxamide], the IC50 is reported as 1000 to 10000 nM.
